Like-named read-outs stand apart in the source and are kept apart here.
Columns and labels:
[1] = system: bacteriophage T1; test: Effect of ozone on bacteriophage T1 spotted on LB agar plates; format: cell-based; conditions: ozone 4 hours, peak less than 150 ppm, silver-coated mesh generator; 10^6-10^9 pfu/mL spots; DH5 E. coli overlay, 72 hours
Experimental: In Experiment 2, the effect of ozone on bacteriophage T1 was studied. In the experiment, 2.5 μL of purified bacteriophage T1 was spotted in four quadrants of two LB agar plates—a test plate 610 and a control plate 620, shown in FIG. 11. The bacteriophage concentrations on each of the two plates were (clockwise from the spot in the upper right quadrant): 10^9 pfu/mL, 10^8 pfu/mL, 10^7 pfu/mL, and 10^6 pfu/mL.
The test plate 610 was placed in an incubator chamber containing both an ozone generator and an ozone degrader. The ozone generator included two ceramic plates surrounded substantially by a silver-coated metal mesh. The ozone generator was activated and the test plate 610 was treated with ozone for 4 hours. The ozone generator was then turned off, and the ozone degrader, formed of activated carbon filters, accelerated the conversion of ozone to oxygen. The peak ozone concentration level generated within the incubator chamber was less than 150 ppm ozone.
The control plate 620 was placed in a different incubator chamber and left untreated. After the ozone generation and degradation cycle completed in the incubator chamber containing the test plate 610, 1 mL of stationary DH5 E. coli bacteria and top agar were added to each plate and incubated at room temperature for 72 hours. The photograph in FIG. 11 was taken immediately following this 72-hour period.

[2] = cited from earlier work
[3] = Ozone breakdown over time in enclosed cell culture chamber (calibrated ozone analyzer); format: physicochemical
Experimental: In Experiment 1, an 1800 mg/hour ozone generator was placed in a 5.5 cubic feet cell culture. The ozone level within the chamber was monitored using a calibrated ozone analyzer. Ozone measurements were captured every 10 seconds. The experimental results, as represented by ozone level over time, are provided in the line graph of FIG. 10A. In test #1, represented by line 510, the ozone generator was run for 80 minutes and achieved a peak ozone concentration within the cell culture chamber of approximately 325 ppm. After the ozone generator was turned off, the ozone was left to break down naturally within the enclosed cell culture chamber. It took approximately 28 hours for the ozone to breakdown to 0.01 ppm ozone.
In tests #2 and #3, represented by lines 520 and 530, respectively, both the ozone generator and an ozone degrader were present in the cell culture chamber. The ozone degrader was formed of three activated carbon filters. With the ozone degrader present, the ozone generator was unable to achieve the peak ozone concentration seen in test #1. In tests #2 and #3, the ozone generator was run for 120 minutes and the concentration of ozone noticeably plateaued. The air within the cell culture chamber reached a peak ozone concentration of approximately 140-150 ppm ozone. […]

[4] = system: E. coli K-12 cells (strain DH5); test: Sterilization efficacy on LB agar plates loaded with E. coli in cell culture chamber; format: cell-based
Experimental: In tests #2 and #3, represented by lines 520 and 530, respectively, both the ozone generator and an ozone degrader were present in the cell culture chamber. The ozone degrader was formed of three activated carbon filters. With the ozone degrader present, the ozone generator was unable to achieve the peak ozone concentration seen in test #1. In tests #2 and #3, the ozone generator was run for 120 minutes and the concentration of ozone noticeably plateaued. The air within the cell culture chamber reached a peak ozone concentration of approximately 140-150 ppm ozone. After the ozone generator was turned off, the ozone began to break down at an accelerated rate with the activated carbon filters present. In both tests #2 and #3, the ozone levels reached a level of 0.01 ppm ozone within 15 minutes.
While the peak ozone concentrations reached in tests #2 and #3 were noticeably lower than the peak ozone concentration of test #1, the ozone levels in tests #2 and #3 were at least sufficient to achieve sterilization. In each of tests #2 and #3, sterilization efficacy was measured with the assistance of LB agar plates loaded with E. coli bacteria. As part of the experiment, E. coli K-12 cells (strain DH5) were grown overnight at 37° C. and the stationary phase was reached. […] The quantity of E. coli present was then analyzed and a photograph of each plate was taken.

O=[O+][O-] [ozone]
survival of the T1-phage [1]: negligible survival
half-life ([2]; in the air): 36 to 72 h
half-life ([2]; in water): 0.13 to 0.5 h
time for ozone to break down to 0.01 ppm ([3]; test #1, natural breakdown from approximately 325 ppm, no ozone degrader, 5.5 cubic feet chamber): approximately 28 hours
time for ozone levels to reach 0.01 ppm ([3]; tests #2 and #3, from approximately 140-150 ppm, three activated carbon filters present): ≤ 15 min
E. coli kill rate ([4]; test #2, ozone 120 minutes, peak approximately 140-150 ppm, then 15 minutes degradation, plates incubated at 37° C. overnight): 100%
quantity of E. coli present after treatment ([4]; test #2 test dish, control dish showed confluent growth): no E. coli was detected

Source: patent US11291739B2, “System and methods for sterilizing enclosed spaces using ozone” (Gene Therapy Systems, Inc., priority 2015, dated 2022)
